Measured values reported in patent US20240307370A1, “SIGMA RECEPTOR LIGANDS FOR TREATING SARS-COV-2 INFECTION” (University of Florida Research Foundation, Incorporated, priority 2021, published 2024).
Values after ≈ are worked out from the molar mass of the structure shown. Read-outs that look alike come from different tables or passages of the source.

How the values were obtained:
SARS-CoV-2 [1] = conditions: previously published study; cited from earlier work
SARS-CoV-2 [2] = conditions: Vero E6, MOI 0.2, 72 h
H23 cells = test: Phospholipidosis assay; conditions: 48 h treatment, 100 μg/ml
SARS-CoV-2 [3] = type: cell-based; conditions: Vero E6, MOI 0.2, 72 h
SARS-CoV-2 [4] = type: cell-based
SARS-CoV-2 [5] = test: microbe, parasite or virus in culture; conditions: Severe acute respiratory syndrome coronavirus 2, Vero C1008, 72 h
[6] = Toxicity of ligand alone (LDH release, CC50); conditions: African green monkey
SARS-CoV-2 [7] = type: cell-based; conditions: H23-hACE2, MOI 0.01, 48 hpi, vs mock treated
SARS-CoV-2 [8] = test: K18-hACE2 mouse SARS-CoV-2 infection model; type: in vivo, mice
SARS-CoV-2 [9] = test: Plaque reduction assay in Vero E6 monolayers; type: cell-based; conditions: Vero E6, plaques counted at 72 h; for EC50: Severe acute respiratory syndrome coronavirus 2, Vero C1008, 72 h
SARS-CoV-2 [10] = conditions: cited from earlier work
SARS-CoV-2 [11] = conditions: cited from earlier work; remark: listed apart in the source
Vero E6 cells = test: Toxicity of ligand alone (LDH release, CC50); conditions: drug alone, Vero E6, 72 h, LDH release
sigma-1 over sigma-2 = conditions: cited from earlier work
[12] = read-out: Cytotoxicity EC50 (inhibition of SARS-CoV-2-induced cytotoxicity)
[13] = read-out: EC50 for inhibition of SARS-CoV-2 induced cytotoxicity
[14] = 45 mg/kg daily intraperitoneal from 24 hours after infection

CCC(CC)COC(=O)[C@H](C)N[P@](=O)(OC[C@H]1O[C@@](C#N)(c2ccc3c(N)ncnn23)[C@H](O)[C@@H]1O)Oc1ccccc1 [remdesivir]
reported SI (CC50/EC50) (SARS-CoV-2 [1]): > 4.96

O=c1sc2cc(CCCF)ccc2n1CCN1CCCCCC1 [CM304]
inhibition of SARS-CoV-2-induced cytotoxicity (SARS-CoV-2 [2]): insignificant viral inhibition
phospholipidosis level (H23 cells): highest mean levels of phospholipidosis
reduction of cytopathic effects (CPE) by microscopy (SARS-CoV-2 [3]): unable to visibly reduce CPE
more virus detected (RNA levels) compared to the 48 hours DMSO control (SARS-CoV-2 [4]): 61.2%

CC(CCCn1c(=O)sc2cc(F)ccc21)N1CCN(C2CCCCC2)CC1 (centres unmarked) [AZ66]
EC50 (SARS-CoV-2 [5]; [12]): 45.1 µg/mL
EC50 (SARS-CoV-2 [5]; [13]): 86.4 µM
CC50 at 72 h [6]: 128 µg/mL (≈ 315 µM)
decrease of SARS-CoV-2 concentration (TCID50) (SARS-CoV-2 [7]; 50 μg/ml): ~3 log
reduction of cytopathic effects (CPE) by microscopy (SARS-CoV-2 [3]): greatly reduce cytopathic effects
weight loss associated with COVID-19 (SARS-CoV-2 [8]; [14]): delayed weight loss
EC50 (SARS-CoV-2 [9]; read-out: EC50 by plaque reduction assay): 15.9 µM
EC50 (SARS-CoV-2 [9]; read-out: Plaque reduction EC50): 6.46 µg/mL
Plaque reduction EC50 (SARS-CoV-2 [9]): 6.47 µg/mL
viral replication reduced by (qPCR) (SARS-CoV-2 [4]): 99.9%
viral replication reduction (qPCR) (SARS-CoV-2 [4]): 3 log

CN(C)CCOC(c1ccccc1)c1ccccc1 [diphenhydramine, reference compound]
EC50 (SARS-CoV-2 [5]; [12]): 122 µg/mL
EC50 (SARS-CoV-2 [5]; [13]): 418 µM
decrease of SARS-CoV-2 concentration (TCID50) (SARS-CoV-2 [7]; 40 μg/ml): ~2 log
reduction of N-protein RNA copies (qPCR) (SARS-CoV-2 [4]): 32.2%

COc1cc2c(cc1OC)CN(CCCCn1c(=O)n(C)c3ccccc31)CC2 [CM398, 1-(4-(6,7-Dimethoxy-3,4-dihydroisoquinolin-2(1H)-yl)butyl)-3-methyl-1H-benzo[d]imidazol-2(3H)-one]
EC50 (SARS-CoV-2 [5]; [12]): 51.3 µg/mL
EC50 (SARS-CoV-2 [5]; [13]): 130 µM
CC50 at 72 h [6]: 111 µg/mL (≈ 280 µM)
decrease of SARS-CoV-2 concentration (TCID50) (SARS-CoV-2 [7]; 100 μg/ml): ~1 log
reduction of cytopathic effects (CPE) by microscopy (SARS-CoV-2 [3]): greatly reduce cytopathic effects
weight loss associated with COVID-19 (SARS-CoV-2 [8]; [14]): delayed weight loss
median survival (SARS-CoV-2 [8]; 45 mg/kg daily intraperitoneal from 24 hours after infection, saline 5.5 days, not statistically significant): 6.5 days
survival and recovery (SARS-CoV-2 [8]; 45 mg/kg daily intraperitoneal, group of 5 mice): One mouse in the CM398 group survived and regained all weight lost
viral replication reduced by (qPCR) (SARS-CoV-2 [4]): 97.5%

COc1cccc2c1CCCC2CCCN1CCN(C2CCCCC2)CC1 (centres unmarked) [PB28]
in vitro SARS-CoV-2 inhibitory effects (SARS-CoV-2 [10]): sub-nanomolar
in vivo efficacy (SARS-CoV-2 [11]): ineffective
in vivo toxicity (SARS-CoV-2 [11]): toxic

COc1ccc(CCN2CCN(CCCc3ccccc3)CC2)cc1OC [SA4503, cutamesine, reference compound]
Cytotoxicity CC50 (Vero E6 cells): 198.7 µg/mL
Cytotoxicity EC50 (inhibition of SARS-CoV-2-induced cytotoxicity) (SARS-CoV-2 [2]; LDH release): 110.5 µg/mL
EC50 (SARS-CoV-2 [2]; read-out: EC50 for inhibition of SARS-CoV-2 induced cytotoxicity, LDH release): 300 µM
preference for sigma-1 over sigma-2 (sigma-1 over sigma-2): > 15 fold
reduction of cytopathic effects (CPE) by microscopy (SARS-CoV-2 [3]): unable to visibly reduce CPE
viral replication reduced by (qPCR) (SARS-CoV-2 [4]): 56.2%
